# Source: PubChem BioAssay AID1963849 (Molecular Pharmacology Branch, DTP, NCI, 2024)
# pIC50: −log10 of the molar value.
# System: 299254-011-R-J1-PDC complex spheroid viability
# Assay: Anticancer human tumor 299254-011-R-J1-PDC patient-derived melanoma cell line growth inhibition [POLQ]
# Settings: for pIC50: curve of first compound; for viability, T/C: stronger effect = lower value
# Experimental: Multicellular complex tumor spheroid response to Polymerase (POL) inhibitors (novobiocin, ART-558, RP6685) in combination with a variety of drugs and investigational agents in selected tumor cell lines
# The POL inhibitors (novobiocin, ART-558, and RP6685) were evaluated both individually and in combination with standard of care and investigational anticancer small molecules within a complex spheroid model of solid tumors. . Complex spheroids include a stromal component modeled by human endothelial cells (HUVEC) and fibroblasts modeled by human mesenchymal stem cells (MSCs). The concentration ranges selected for each drug and investigational agent were based upon clinically achievable concentrations if the clinical Cmax of the agent was known.
# Compounds. The drugs and investigational agents: novobiocin (NSC847541), ART-558 (NSC835418), RP-6685 (NSC848927), peposertib (NSC802822), ceralasertib (NSC780249), elimusertib (NSC800525), camonsertib (NSC841442), AZD-1390 (NSC803789), olaparib (NSC753686), talazoparib (NSC767125), rucaparib (NSC756644), sotorasib (NSC818433), MRTX-1133 (NSC836407), SN-38 (NSC673596), topotecan (NSC609699), epotoside (NSC141540), doxorubicin (NSC123127), gemcitabine (NSC613327), 5-fluorouracil (NSC19893), paclitaxel (NSC125973), vemurafenib (NSC761431), MSA-2 (NSC828583), SN-011 (NSC837082), adavosertib (NSC754352), prexasertib (NSC758257), carboplatin (NSC241240) and oxaliplatin (NSC266046), were obtained from the National Cancer Institute (NCI) Developmental Therapeutics Program Chemical Repository (21). The FDA-approved anticancer drug set is available from the Developmental Therapeutics Program at https://dtp.cancer.gov/organization/dscb/obtaining/. […] The stock solutions were prepared in dimethyl sulfoxide (DMSO, Sigma-Aldrich, St. Louis, MO, cat. D2650), except for the platinum compounds which were prepared in saline (Quality Biological, Gaithersburg, MD, cat. 114-055-101), at 800-fold the tested concentration and stored at -70 degrees C prior to their use. All drugs and investigational agents were tested over a range starting from a high concentration at or near the clinical Cmax and decreasing in half-log increments. If the clinical Cmax for an agent had not been determined, the highest concentration tested was 10 microM, except for SN-38, which was tested at a high concentration of 1 microM.
# Cell Culture. All cells were maintained in an incubator at 37 degrees C and 5% CO2 with 95% humidity. The PDC lines were cultured according to standard operating procedures established by the NCI PDMR (https://pdmr.cancer.gov). Table 3 of the manuscript, lists the cell lines along with the number of the three cell types plated to form the mct-spheroids and media for tumor cell growth. After thawing, all PDC lines, except 997537-175-T-J1-PDC and 415267-285-R-J2-PDC, were cultured in Matrigel-coated flasks prepared with a working solution of 1X Ham's F-12 nutrient mix, without supplementation (Thermo Fisher Scientific, cat. 11765054), 100 U/mL penicillin-streptomycin (Thermo Fisher Scientific, cat. 15140122), and 2.5% Matrigel (Corning Inc., Corning, NY, cat. 354248) for the first three passages. The two PDC lines 997537-175-T-J1-PDC and 415267-285-R-J2-PDC were cultured on uncoated flasks. The 857933-349-R-J2-PDC line was cultured in 6C/Colon 1B media containing advanced DMEM/F-12 (Thermo Fisher Scientific, cat. 12634028), 10 mM HEPES (Thermo Fisher Scientific, cat. 15630080), 1X GlutaMAX supplement (Thermo Fisher Scientific, cat. 35050061), 0.1 mg/mL primocin (InvivoGen, San Diego, CA, cat. ant-pm-2), 10% defined fetal bovine serum, heat inactivated (HyClone Laboratories Inc., Logan, UT, cat. SH30070.03HI), 50% L-WRN conditioned media (ATCC, cat. CRL-3276), 1.25 mM N-Acetyl-L-cysteine (Sigma-Aldrich, cat. A9165), 10 mM nicotinamide (Sigma-Aldrich, cat. N0636), 1X B-27 supplement (Thermo Fisher Scientific, cat. 17504044), 1X N-2 supplement (Thermo Fisher Scientific, cat. […]
# 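Note: spheroids exposed to drugs for one week before measurement.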
# 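Throughout, for viability, T/C: percent viability relative to DMSO vehicle control taken as 100%.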
compound,measurement,setting,value
O=c1[nH]cc(F)c(=O)[nH]1 + COC1C(OC(N)=O)C(O)C(Oc2ccc3c(O)c(NC(=O)c4ccc(O)c(CC=C(C)C)c4)c(=O)oc3c2C)OC1(C)C,pIC50,second compound 0.0316 µM,< 5.00
same,pIC50,second compound 0.1 µM,< 5.00
same,pIC50,second compound 0.316 µM,< 5.00
same,pIC50,second compound 1 µM,< 5.00
same,pIC50,second compound 3.16 µM,< 5.00
same,pIC50,second compound 10 µM,< 5.00
same,"viability, T/C","second compound 0.0316 µM, first compound 0.0316 µM",109%
same,"viability, T/C","second compound 0.0316 µM, first compound 0.1 µM",108%
same,"viability, T/C","second compound 0.0316 µM, first compound 0.316 µM",122%
same,"viability, T/C","second compound 0.0316 µM, first compound 1 µM",99.6%
same,"viability, T/C","second compound 0.0316 µM, first compound 3.16 µM",94.3%
same,"viability, T/C","second compound 0.0316 µM, first compound 10 µM",66.8%
same,"viability, T/C","second compound 0.1 µM, first compound 0.0316 µM",110%
same,"viability, T/C","second compound 0.1 µM, first compound 0.1 µM",110%
same,"viability, T/C","second compound 0.1 µM, first compound 0.316 µM",114%
same,"viability, T/C","second compound 0.1 µM, first compound 1 µM",113%
same,"viability, T/C","second compound 0.1 µM, first compound 3.16 µM",93.7%
same,"viability, T/C","second compound 0.1 µM, first compound 10 µM",76.3%
same,"viability, T/C","second compound 0.316 µM, first compound 0.0316 µM",109%
same,"viability, T/C","second compound 0.316 µM, first compound 0.1 µM",102%
same,"viability, T/C","second compound 0.316 µM, first compound 0.316 µM",116%
same,"viability, T/C","second compound 0.316 µM, first compound 1 µM",101%
same,"viability, T/C","second compound 0.316 µM, first compound 3.16 µM",91.8%
same,"viability, T/C","second compound 0.316 µM, first compound 10 µM",79.1%
same,"viability, T/C","second compound 1 µM, first compound 0.0316 µM",111%
same,"viability, T/C","second compound 1 µM, first compound 0.1 µM",115%
same,"viability, T/C","second compound 1 µM, first compound 0.316 µM",92.8%
same,"viability, T/C","second compound 1 µM, first compound 1 µM",110%
same,"viability, T/C","second compound 1 µM, first compound 3.16 µM",101%
same,"viability, T/C","second compound 1 µM, first compound 10 µM",87.7%
same,"viability, T/C","second compound 3.16 µM, first compound 0.0316 µM",110%
same,"viability, T/C","second compound 3.16 µM, first compound 0.1 µM",117%
same,"viability, T/C","second compound 3.16 µM, first compound 0.316 µM",128%
same,"viability, T/C","second compound 3.16 µM, first compound 1 µM",112%
same,"viability, T/C","second compound 3.16 µM, first compound 3.16 µM",91.3%
same,"viability, T/C","second compound 3.16 µM, first compound 10 µM",68.8%
same,"viability, T/C","second compound 10 µM, first compound 0.0316 µM",130%
same,"viability, T/C","second compound 10 µM, first compound 0.1 µM",131%
same,"viability, T/C","second compound 10 µM, first compound 0.316 µM",96.2%
same,"viability, T/C","second compound 10 µM, first compound 1 µM",109%
same,"viability, T/C","second compound 10 µM, first compound 3.16 µM",89.9%
same,"viability, T/C","second compound 10 µM, first compound 10 µM",78.3%
